Series [1] concerns Plasmodium falciparum. The experiment in a line: NOVARTIS: Inhibition of Plasmodium falciparum 3D7 (drug-susceptible) proliferation in erythrocyte-based infection assay. The note with it: Plasmodium falciparum, 3D7. Format: functional, organism-based.
In series [2] the test system is Plasmodium falciparum. The experiment in a line: NOVARTIS: Inhibition of Plasmodium falciparum W2 (drug-resistant) proliferation in erythrocyte-based infection assay. Type of series: functional, organism-based. The note with it: Plasmodium falciparum, W2; read-out: EC50.
The nature of series [3]: NOVARTIS: Cytotoxicity against human hepatocellular carcinoma cell line (Huh7). The note with it: Huh7 cells (hepatocellular carcinoma cell line). Type of series: toxicity, cell-based, Huh-7.

A value given as a limit tells only on which side of the number the result lay.

For `Nc1ccc(Nc2ccc(N)cc2)cc1`, the EC50 in the series with Plasmodium falciparum [1] was 319 nM; in the series on Plasmodium falciparum [2], 711 nM. The CC50 in series [3] is over 10000 nM.
With `CCCCCCN(C(=O)c1ccc(CCCCC)cc1)C(CC)c1nc2ccccc2c(=O)n1-c1ccccc1OC` (stereo not drawn), the EC50 with Plasmodium falciparum [1] turned out to be 1030 nM; with Plasmodium falciparum [2], 699 nM. This compound showed a CC50 in series [3] of over 10000 nM.
On the same counts, the results for `O=C(CC1SC(=Nc2ccccc2)NC1=O)Nc1cc(Cl)ccc1Cl` (stereo not drawn) are over 12500 nM, over 7080 nM and over 100000 nM.
In the same order, the values of `COC(=O)c1ccc(Cn2cc(C=O)c3ccccc32)o1` are over 1250 nM, over 707 nM and over 10000 nM.
For the compound `C=C1[C@@H](C)[C@H]2[C@H](Cc3ccccc3)NC(=O)[C@]23C(OC(C)=O)C=C[C@@](C)(O)C(=O)[C@@H](C)CC=C[C@H]3[C@@H]1O` (stereo partly drawn), the values for the half-maximal effective concentration (EC50) in the series on Plasmodium falciparum [1] and in the series on Plasmodium falciparum [2] were 1170 nM and 711 nM, respectively. For the same compound, the CC50 in series [3] was over 10000 nM.
On the same counts, the results for `CCCNc1nc(OC(C(F)(F)F)C(F)(F)F)nc(OC(C(F)(F)F)C(F)(F)F)n1` are over 1580 nM, over 702 nM and over 10000 nM.
For the compound `Cc1c(Cl)cccc1-n1c(C(C)N(CCc2ccccc2)C(=O)COc2ccccc2)nc2ccccc2c1=O` (stereo not drawn), the EC50 with Plasmodium falciparum [1] worked out at 614 nM; in the series with Plasmodium falciparum [2] it was 701 nM. In series [3], this compound registered a CC50 of over 10000 nM.
For `Fc1ccc2nc(Nc3nc(-c4ccccn4)cs3)sc2c1`, the EC50 amounted to 1260 nM in the series with Plasmodium falciparum [1] and 216 nM in the series with Plasmodium falciparum [2]. Besides, half-maximal cytotoxicity in series [3] (CC50) was put at 3040 nM.
On to `CCCCCCCC(=O)N1CCN(C(=O)C(NC(=O)Nc2ccc(Cl)cc2Cl)C(C)CC)CC1` (stereo not drawn), for which the EC50 was over 40.8 nM with Plasmodium falciparum [1] and 701 nM in the series with Plasmodium falciparum [2]. This compound had a CC50 in series [3] of over 10000 nM.
With `COc1cc(/C=C2/SC(=Nc3ccccc3)NC2=O)ccc1OC(=O)c1ccccc1`, the EC50 is over 933 nM with Plasmodium falciparum [1] and 696 nM in the series with Plasmodium falciparum [2]. The compound also returned a CC50 in series [3] of over 10000 nM.
As to `CCOc1ccc(CN(C(=O)COc2ccc(Cl)cc2)C(C)CCCN(CC)CC)cc1` (stereo not drawn), the EC50 came to 387 nM in the series on Plasmodium falciparum [1] and 1320 nM in the series with Plasmodium falciparum [2]. Further, the CC50 in series [3] worked out at 18900 nM.
With `COc1ccc(CCNc2nc(NCCCN3CCCCC3C)ncc2C(=O)NCC(C)C)cc1OC` (stereo not drawn), the EC50 in the series on Plasmodium falciparum [1] is 1160 nM; with Plasmodium falciparum [2], over 706 nM. Besides, in series [3], the CC50 was over 10000 nM.
As for `O=C(NCCCN1CCCC1=O)c1cnc(N2CCN(Cc3ccccc3)CC2)nc1NCCc1ccccc1`, the concentration for a half-maximal effect (EC50) worked out at 572 nM in the series with Plasmodium falciparum [1] and 699 nM in the series on Plasmodium falciparum [2]. For the same compound, the CC50 in series [3] is over 10000 nM.
Consider `Cc1ccc(S(=O)(=O)N=C2C=C(Sc3nnc[nH]3)C(=O)c3ccccc32)cc1`, for which the EC50 was found to be 1560 nM in the series with Plasmodium falciparum [1] and 901 nM in the series on Plasmodium falciparum [2]. In series [3], this compound displayed a CC50 of 12800 nM.
In the same order, the values of `COc1cc(C(=O)NC(c2ccc3c(c2)OCO3)c2cc(Cl)c3cccnc3c2O)cc(OC)c1OC` (stereo not drawn) are 428 nM, 698 nM and over 10000 nM.
On the same counts, the results for `CN(C)c1ccc(Nc2nc(NCC3CCCO3)c3ccccc3n2)cc1` (stereo not drawn) are 852 nM, 805 nM and 11400 nM.
In the case of `CCCCNC(=O)C(c1cccc(OC)c1)N1C(=O)c2cc(OCCCC)ccc2NC(=O)C1CO` (stereo not drawn), the values for the EC50 in the series with Plasmodium falciparum [1] and in the series with Plasmodium falciparum [2] were 205 nM and 168 nM, respectively. In series [3], this compound gave a CC50 of over 2370 nM.
`O=C(O)/C=C\C(=O)N(C1CCCCC1)C1CCCCC1`: the EC50 is over 1250 nM in the series with Plasmodium falciparum [1] and over 708 nM with Plasmodium falciparum [2]. Further, the CC50 in series [3] was over 10000 nM.
In the case of `CN=C1S/C(=C\c2ccc(OCC(=O)O)c(OC)c2)C(=O)N1C`, the EC50 with Plasmodium falciparum [1] was over 1250 nM; in the series on Plasmodium falciparum [2], over 703 nM. Besides, in series [3], the CC50 was over 10000 nM.
Consider `O=C(COC(c1ccccc1)c1c(Cl)cncc1Cl)N1CCC(c2ccccn2)C1` (stereo not drawn), for which the EC50 in the series on Plasmodium falciparum [1] was over 12500 nM; with Plasmodium falciparum [2] it was 6960 nM. In series [3], the CC50 is over 100000 nM.
With `Cc1ccc(S(=O)(=O)c2c(COC(=O)c3cccc(C)c3)c(-c3ccccc3)nn2C)cc1`, the values for the concentration giving a half-maximal response (EC50) in the series with Plasmodium falciparum [1] and in the series with Plasmodium falciparum [2] were 8400 nM and 6970 nM, respectively. This compound also had a CC50 in series [3] of over 100000 nM.

The values above are taken from ChEMBL document CHEMBL1156829 (Proc Natl Acad Sci U S A, 2008).
